Key:
pilosebaceous units = experiment: ALA-induced PpIX fluorescence in skin (fluorescence microscopy / photography); format: in vivo, human
Procedure: Punch biopsy specimens (4 mm) were taken immediately after PDT, a few weeks after PDT, and at 20 weeks from both the untreated control and ALA-PDT areas. […] Histologic examination was performed. […] To determine the level of PpIX converted from ALA in the pilosebaceous units, punch biopsy specimens were also taken from ALA-treated areas after 3 h occlusion as described above.

acne vulgaris [1] = experiment: Inflammatory acne score, open-label human study of topical ALA-PDT on the back
sebaceous glands [2] = experiment: Sebum excretion rate (SER) by Sebutape; details: ALA plus red light
sebaceous glands [3] = experiment: Histologic examination and planimetry of punch biopsies; details: for Reduction of cytoplasm/nuclear cross-section area ratio in sebocyte relative to non-treatment: 3 weeks
[4] = Adverse effects, clinical evaluation and subjective sensation; format: in vivo, human; details: for Subjects with burning sensation / Subjects with itching: multiple ALA-PDT
Procedure: Adverse effects were scored by clinical evaluation of erythema, edema, loss of epidermis, hyperpigmentation, hemorrhage, vesiculation, and exfoliation on a visual-analogue scale from 0 to 3 (0=absent, 1=mild, 2=moderate, 3=severe) for each finding. Subjective sensation of pain, burning, and itching was generally maximum about 10 minutes into light exposure, and was ranked at that time and the end of treatment (1 hour), by subjects on a scale from 0 to 3 similar to above.

acne vulgaris [5] = experiment: Global clinical-improvement grading by blinded dermatologists from photographs; format: in vivo, human
Procedure: (§1) Sites were marked withtemplates to precisely relocate each test area. […] Then, 20% topical ALA in a hydroalcoholic vehicle (Levulan, a gift from DUSA pharmaceutical) was applied for 3h under occlusion with plastic film (Saran wrap), and 150 J/cm^2 broad band light (550-700 nm) was given to the ALA-PDT and light alone areas. […] In both groups, subjects returned one week after treatments for clinical evaluations and at weeks 2, 3, 10 and 20 for clinical, fluorescence, and SER evaluations.
Clinical improvement was globally assessed by 3 dermatologists unaware of the status of treatment, who blindly graded changes in acne from fixed-magnification clinical photographs, after being shown a small set standardized series of training slides not used in the data evaluation. The grading scale was defined as −3 for >50% exacerbation, −2 for 25^+−50% exacerbation, −1 for 1^+−25% exacerbation, 0 if unchanged, 1 for 1^+−25% improvement, 2 for 25^+−50% improvement, 3 for 50^+−75% improvement, 4 for 75^+−99% improvement, and 5 for 100% improvement, as compared to the baseline.
(§2) Statistical significance was defined as p value of less than 0.05.

P. acnes = experiment: Fluorescence photography of follicular bacterial porphyrin (red fluorescent dots); format: in vivo, human
Procedure: as §1
A Nikon E2N digital camera body with a Nikon 105 mm macro lens was used. A filter (Corion LL-550S) was placed on the lens to block light below 550 nm. The excitation light source was composed of two synchronized photoflashes with Norman 400 watt-second lampheads (FT400/FT6), mounted on a stationary tower with angles of incidence of 60 degrees bilaterally. Two 400 nm bandpass filters with 5 nm bandwidth (Corion S40-400S) were placed on the flashes. By this method, the punctate orange-red fluorescence of hair follicles populated with P. acnes was seen. Fluorescence emission has been attributed to bacterial coproporphyrin III and protoporphyrin IX, and intensity of fluorescence is related to the P. acnes population. Fluorescence photography was performed at week, 0, 2, 3, 10 and 20 in all sites. The number of punctate red flourescent dots was counted blindly for each test area.
as §2

[6] = single treatment, ALA plus red light
[7] = multiple treatment group, 20 weeks after the last treatment
[8] = twenty weeks after a single ALA-PDT treatment
[9] = multiple-treatment subjects, after 4 treatments
[10] = single-treatment subjects, at 20 weeks
[11] = multiple treatments, ALA plus red light

SMILES: NCC(=O)CCC(=O)O [ALA, 5-aminolevulinic acid]
- Porphyrin fluorescence of fresh-frozen sections compared with untreated skin (pilosebaceous units; after ALA application, 3 h occlusion, fluorescence microscopy): bright porphyrin fluorescence in epidermis and pilosebaceous units
- PpIX fluorescence, sebocytes versus follicular epithelial cells (pilosebaceous units; after ALA application, fluorescence microscopy): brighter PpIX fluorescence in sebocytes than in the adjacent follicular epithelial cells
- ALA-induced PpIX fluorescence, acne lesions versus surrounding tissue (pilosebaceous units; fluorescence photography): greater in acne lesions than surrounding tissue
- Inflammatory acne score, multiple versus single treatment group, all follow-up visits combined (acne vulgaris [1]; ALA alone, P=0.007): better improvement than the single treatment group
- Inflammatory acne score, multiple versus single treatment group (acne vulgaris [1]; ALA plus red light, first 3 follow-up visits): significantly better improvement than the single ALA-PDT treatment group
- Inflammatory acne score, multiple versus single treatment group, all follow-up visits combined (acne vulgaris [1]; ALA plus red light, p<0.001): better improvement than the single treatment group
- Duration of clinical and statistically significant clearance of inflammatory acne (acne vulgaris [1]; after a single treatment): ≥ 10 weeks
- Duration of clinical and statistically significant clearance of inflammatory acne (acne vulgaris [1]; after multiple ALA-PDT treatments): at least 20 weeks
- Inflammatory acne score, change from baseline (acne vulgaris [1]; multiple (4 weekly) treatments, ALA plus red light): obvious and statistically significant improvement in acne at all follow-up visits
- Inflammatory acne score, change from baseline (acne vulgaris [1]; multiple treatments, ALA alone, no light): no improvement
- Inflammatory acne score, change from baseline versus the other three sites (acne vulgaris [1]; multiple treatments, ALA plus red light, all visits, p<0.05): significantly greater
- Inflammatory acne score, ALA alone versus untreated area (acne vulgaris [1]; multiple treatments, visit 2 (week 2) only, p=0.046): barely-significant improvement
- Inflammatory acne score, change from baseline (acne vulgaris [1]; single treatment, 20% topical ALA 3 h occlusion + 150 J/cm^2 red light): improvement in acne, which was statistically significant starting 3 weeks after treatment
- Inflammatory acne score, change from baseline (acne vulgaris [1]; single treatment, ALA alone, no light, all visits): slightly worse acne not significantly different than baseline
- Inflammatory acne score, change from baseline versus the other three areas (acne vulgaris [1]; [6]): the differences were statistically significant at 3, 10, 20 weeks
- Sebum excretion after PDT (summary) (sebaceous glands [2]): eliminated for several weeks, and decreased for 20 weeks
- SER, multiple versus single treatment group (sebaceous glands [2]; difference significant only at 20 weeks, all visits combined p=0.001): suppressed SER more than single ALA-PDT
- SER, difference to the other 3 areas (sebaceous glands [2]; multiple treatments): statistically significant at all 4 visits
- Sebum excretion rate (SER) versus baseline (sebaceous glands [2]; multiple treatments): significant decrease in SER, at all follow-up visits
- SER versus the other test sites (sebaceous glands [2]; single treatment): significantly lower than any other test sites, at each follow-up visit
- Sebum excretion rate (SER) versus baseline (sebaceous glands [2]; single treatment, weeks 2, 3, 20): significant decrease of SER
- Reduction of sebaceous gland size compared with untreated control area (sebaceous glands [3]; 3 weeks after multiple ALA-PDT): 55%
- Reduction of sebaceous gland size compared with untreated control area (sebaceous glands [3]; 3 weeks after single ALA-PDT): 30%
- Histologic finding in sebaceous gland lobules (sebaceous glands [3]; 20 weeks after multiple ALA-PDT treatments): complete destruction or 25 marked atrophy of sebaceous gland lobules
- Reduction of sebaceous gland size, mean decrease (sebaceous glands [3]; immediately after PDT): 40%
- Reduction of cytoplasm/nuclear cross-section area ratio in sebocyte relative to non-treatment (sebaceous glands [3]; multiple PDT): 56%
- Reduction of sebaceous gland size (sebaceous glands [3]; [7]): 45%
- Reduction of sebaceous gland size, range (sebaceous glands [3]; [7]): 15-80%
- Reduction of sebocyte cytoplasm/nuclear area (sebaceous glands [3]; [7]): 46%
- Reduction of sebocyte cytoplasm/nuclear area, range (sebaceous glands [3]; [7]): 39-53%
- Reduction of cytoplasm/nuclear cross-section area ratio in sebocyte relative to non-treatment (sebaceous glands [3]; single PDT): 38%
- Reduction of sebaceous gland size, mean decrease (sebaceous glands [3]; [8]): 17%
- Sebocyte cytoplasm/nuclear area ratio (sebaceous glands [3]; [8]): not reduced
- Patients with acute eruption of inflammatory acneiform lesions ([4]; ALA-PDT sites only, both groups): 100%
- Exfoliation after 3 weeks post treatment ([4]; all subjects): None of the subjects had exfoliation
- Scarring ([4]; all subjects, both groups): no site in any subject had any scarring
- Erythema and edema, time course ([4]; both groups, 1 hour after treatment): substantial decrease in erythema and edema by 1 hour after treatment
- Subjects with burning sensation ([4]; treatment 1): 9%
- Subjects with itching ([4]; treatment 1): 73%
- Subjects with burning sensation ([4]; treatment 2): 67%
- Subjects with itching ([4]; treatment 2): 73%
- Subjects with burning sensation ([4]; treatment 3): 67%
- Subjects with itching ([4]; treatment 3): 55%
- Subjects with burning sensation ([4]; treatment 4): 73%
- Subjects with itching ([4]; treatment 4): 55%
- Subjects still showing some degree of pigmentation ([4]; multiple PDT, 20 weeks after treatment): 55%
- Patients who could not continue the weekly treatment scheme and had to postpone their next treatment ([4]; multiple treatment group): Six
- Acneiform lesions induced by subsequent treatments ([4]; multiple-treatment group): almost no new acneiform lesions were observed after treatment 4
- Duration of transient purpura, average [4, 9]: 1 week
- Subjects with superficial but very prominent exfoliation, transient purpura and partial loss of epidermis [4, 9]: 10%
- Main subjective discomfort ([4]; single ALA-PDT group): itching was the main discomfort in the single ALA-PDT group, and pain was the least
- Subjects in whom erythema faded away completely [4, 10]: 82%
- Subjects in whom hyperpigmentation faded away completely [4, 10]: 91%
- Global clinical-improvement score, multiple versus single treatment group (acne vulgaris [5]; ALA plus red light, first 2 follow-up visits (week 1 & 2)): significantly better improvement than the single ALA-PDT treatment group
- Duration of obvious and significant improvement of acne, blinded clinical assessment (acne vulgaris [5]; after 4 treatments): at least 20 weeks
- Duration of obvious and significant improvement of acne, blinded clinical assessment (acne vulgaris [5]; after a single ALA-PDT treatment): at least 10 weeks
- Global clinical-improvement score versus baseline (acne vulgaris [5]; multiple treatments, ALA alone, visit 2 and visit 5): improvement reaching statistical significance
- Global clinical-improvement score versus baseline (acne vulgaris [5]; [11]): Significant improvement
- Global clinical-improvement score versus the other 3 sites (acne vulgaris [5]; [11]): significantly better improvement in the ALA-PDT treated site than the other 3 sites, at all follow-up visits
- Global clinical-improvement score versus baseline (acne vulgaris [5]; [6]): significant global improvement starting week 3 and extending through week 20
- Global clinical-improvement score, difference to the other three treatment sites (acne vulgaris [5]; [6]): statistically significant at weeks 3 and 10
- Fluorescence related to P. acnes, multiple versus single treatment group (P. acnes; ALA plus red light, four times versus single): better, but not significant, improvement
- Duration of significant decrease of fluorescence of endogenous porphyrins associated with P. acnes (P. acnes; after both single and multiple ALA-PDT): at least 20 weeks
- Fluorescence related to P. acnes versus baseline (P. acnes; multiple treatments, ALA alone, week 10 and 20): significantly greater fluorescence than baseline
- Fluorescence related to P. acnes versus baseline (P. acnes; [11]): significant loss of P. acnes, fluorescence, starting at follow-up visit 2
- Fluorescence related to P. acnes, difference to the other 3 test sites (P. acnes; [11]): statistically significant for all visits
- Fluorescence related to P. acnes versus baseline (P. acnes; [6]): significant loss of fluorescence related to P. acnes, which lasted for all 4 follow-up visits
- Fluorescence related to P. acnes, difference to the other 3 test sites (P. acnes; [6]): statistically significant for all visits
